Consider one compound from patent US12600724B2, “Indole alkaloid and preparation method and use thereof” (NANJING UNIVERSITY OF CHINESE MEDICINE, priority 2022, dated 2026).

One may read the fold induction as the ratio of treated to control signal. Low readings indicate a weak induction, high ones a strong induction.

The test system of one test is primary DRG neuron. Description: Axon growth of primary DRG neurons (immunofluorescence, Neuro J). It is filed as cell-based, C57BL/6J mice. The note with it: 24 hours. The protocol:
Diabetic peripheral neuropathy involved a sensory neuron first, and a main pathological change was axonal atrophy and degeneration, or even disappearance. […] Therefore, the compounds in the examples were added with the primary DRG neuron to incubate for a certain period of time, then the axon growth of the DRG neuron was detected by immunofluorescence, and an axon length was quantified by Neuro J, so as to evaluate the promotion effect of the compound on the axon growth of the peripheral sensory neuron.
Primary antibodies of mice anti-β-tubulin III used for fluorescent staining were purchased from Sigma Company, cell culture reagents were all purchased from Gibco Company, and DRG neuronal cells were taken from C57BL/6J mice. Specific experimental steps were as follows: fresh DRG of the C57 mice was extracted to digest into a single-cell suspension and then inoculated into a culture plate for adherent culture overnight, with vinblastine as a positive drug, the to-be-detected compounds S1 to S87 ([…]) synthesized in the above examples were given to incubate for 24 hours, then an original culture medium was removed, 4% paraformaldehyde was added into each well to fix for 15 minutes after PBS washing, the mixture was permeabilized with 0.3% TritonX-100 for 5 minutes and sealed at room temperature with 4% BSA for 1 hour, a primary antibody (1:1000) was incubated at 4° C. overnight, a goat anti-mouse fluorescent secondary antibody (1:300) was incubated at room temperature in the dark for 1 hour, and a sealed slide was imaged by a fluorescence microscope (Leica). According to the image, a total axon length of a single DRG neuron was tracked by a Neuro J plug-in in Image J software, and a multiple of the total axon length relative to that of the blank control group was calculated.

The subject of test [1] is STZ-induced type-1 diabetes model mice. Put plainly: Latent period of thermal pain, type-1 diabetic peripheral neuropathy mice. It is filed as in vivo, C57BL/6J mice. The settings on record: type-1 mice, S26 46.8 mg/kg/day intragastric, Mean ± SD, n = 6. The protocol:
Type-1 diabetes mice: male 8-week-old C57BL/6J mice were purchased from Beijing Vital River Laboratory Animal Technology Co., Ltd. One week after adaptive feeding, STZ (150 mg/kg) was injected intraperitoneally, and one week later, tail vein blood collection was carried out for blood sugar detection, and the mice with random blood sugar greater than 16 mmol/L were selected. Six weeks after STZ injection, the mice were divided into a control group (non-diabetic mice), a model group (DPN mice) and a S26 administration group (46.8 mg/kg/day) respectively according to body weight and blood sugar, and administrated intragastrically for four weeks continuously. A response of an animal to infrared thermal stimulation was detected weekly by an infrared plantar pain threshold detector (37370, purchased from Ugo Basile Company) before and after administration to characterize a thermal pain sensitivity of the animal. A mouse was put into a single cage equipped for the machine in advance to adapt for 20 minutes, and then plantar thermal stimulation was carried out on the mouse. […] The thermal pain sensitivity was evaluated by comparing the thermal stimulation time.

As for `CC[C@@]12C=C(C(=O)NCC(=O)OCCOCCOCCOCCO)n3c4c(c5ccccc53)CCN(CCC1)[C@H]42` [Compound S26], the “Promotion of axon growth of the primary DRG neuron compared with the positive drug (in words)” value in the test on primary DRG neuron (10 μm) was “more outstanding effect”. The fold induction at 10 µM in the test with primary DRG neuron (Mus musculus, multiple of total axon length of a single DRG neuron relative to blank control group) is 13.7. Besides, the “Latent period of thermal pain” value is given as 11.33 ± 0.67 ^ s in test [1] (week 0 of administration); 8.19 ± 0.69 s in test [1] (week 1 of administration); 6.97 ± 0.73 s in test [1] (week 2 of administration); 6.16 ± 1.33 s in test [1] (week 3 of administration); 6.38 ± 0.54 s in test [1] (week 4 of administration).
